# PMC11211886 (Frontiers in Pharmacology, 2024)
# Several values for one entry are separate records, joined by “and”; a condition that tells them apart may be missing. Equal values may be shown once.
# Columns and labels:
# [1] = Whole blood-to-plasma partition, dog blood; format: in vitro ADME
# Description: The whole blood and plasma samples were incubated at 37°C for up to 1 h. Serial samples (150 µL) were collected at different time points (0, 10, and 60 min) and transferred into new tubes. The whole blood samples were then centrifuged at 1700 g for 15 min to harvest plasma.
# [2] = molecular target: T1, CYP2C19 (Homo sapiens, UniProt P33261); experiment: Reversible CYP inhibition in HLM, CYP2C19 (S-mephenytoin); format: in vitro ADME; conditions: for enzyme activity remaining: CYP2C19, HLM
# T1 construct: tissue Life Technologies (Durham, NC, USA); host or cells: human liver microsomes
# T1 sequence (P33261 whole entry): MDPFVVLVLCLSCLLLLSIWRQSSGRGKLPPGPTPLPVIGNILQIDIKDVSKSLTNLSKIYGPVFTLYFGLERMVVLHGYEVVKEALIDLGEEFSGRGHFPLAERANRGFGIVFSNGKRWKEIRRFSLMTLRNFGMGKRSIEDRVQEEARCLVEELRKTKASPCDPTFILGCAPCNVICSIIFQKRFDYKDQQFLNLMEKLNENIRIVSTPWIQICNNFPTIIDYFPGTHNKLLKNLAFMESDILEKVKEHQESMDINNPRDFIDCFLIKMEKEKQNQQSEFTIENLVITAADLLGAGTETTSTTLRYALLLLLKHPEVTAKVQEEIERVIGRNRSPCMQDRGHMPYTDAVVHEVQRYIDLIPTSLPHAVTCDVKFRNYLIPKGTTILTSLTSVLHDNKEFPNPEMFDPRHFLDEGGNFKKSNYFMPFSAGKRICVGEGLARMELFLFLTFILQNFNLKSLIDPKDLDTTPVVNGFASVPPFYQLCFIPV
# Description: The markers used to determine the activities of CYP isoforms were phenacetin O-deethylation for CYP1A2 (probe substrate: 50 µM phenacetin), bupropion hydroxylation for CYP2B6 (probe substrate: 70 µM bupropion), paclitaxel 6α-hydroxylation for CYP2C8 (probe substrate: 10 µM paclitaxel), diclofenac 4′-hydroxylation for CYP2C9 (probe substrate: 5 µM diclofenac), S-(+)-mephenytoin 4′-hydroxylation for CYP2C19 (probe substrate: 20 µM S-(+)-mephenytoin), dextromethorphan O-demethylation for CYP2D6 (probe substrate: 6 µM dextromethorphan), chlorzoxazone 6′-hydroxylation for CYP2E1 (probe substrate: 70 µM chlorzoxazone), and testosterone 6β-hydroxylation and midazolam 1′-hydroxylation for CYP3A4/5 (probe substrate: 45 µM testosterone and 5 µM midazolam). […] Alpha-naphthoflavone (0.04 µM), 2-phenyl-2-(1-piperidinyl)propane (5 µM), quercetin (1 µM), sulfaphenazole (0.5 µM), ticlopidine (4 µM), quinidine (0.2 µM), diethyldithiocarbamate (20 µM), and ketoconazole (0.05 µM) were used as positive inhibitors of CYP1A2, 2B6, 2C8, 2C9, 2C19, 2D6, 2E1, and 3A4, respectively. The vehicle control was prepared in the same composition as inhibitor solutions but free of inhibitors. The concentrations of probe substrates were close to Km values that were determined in-house and within the range recommended by the FDA ([Huang et al., 2007]). Reaction mixtures were incubated at 37°C for 5, 20, or 30 min, depending on the probe substrates of CYP isoforms. The reactions were terminated by adding cold acetonitrile containing IS, and the terminated incubation mixtures were centrifuged at 3,000 g for 10 min before LC-MS/MS analysis.
# [3] = molecular target: T2, CYP2C8 (Homo sapiens, UniProt P10632); experiment: Time-dependent CYP inhibition in HLM, CYP2C8; format: in vitro ADME; conditions: 10 μM, 30 min pre-incubation with NADPH
# T2 construct: tissue Life Technologies (Durham, NC, USA); host or cells: human liver microsomes
# T2 sequence (P10632 1-490): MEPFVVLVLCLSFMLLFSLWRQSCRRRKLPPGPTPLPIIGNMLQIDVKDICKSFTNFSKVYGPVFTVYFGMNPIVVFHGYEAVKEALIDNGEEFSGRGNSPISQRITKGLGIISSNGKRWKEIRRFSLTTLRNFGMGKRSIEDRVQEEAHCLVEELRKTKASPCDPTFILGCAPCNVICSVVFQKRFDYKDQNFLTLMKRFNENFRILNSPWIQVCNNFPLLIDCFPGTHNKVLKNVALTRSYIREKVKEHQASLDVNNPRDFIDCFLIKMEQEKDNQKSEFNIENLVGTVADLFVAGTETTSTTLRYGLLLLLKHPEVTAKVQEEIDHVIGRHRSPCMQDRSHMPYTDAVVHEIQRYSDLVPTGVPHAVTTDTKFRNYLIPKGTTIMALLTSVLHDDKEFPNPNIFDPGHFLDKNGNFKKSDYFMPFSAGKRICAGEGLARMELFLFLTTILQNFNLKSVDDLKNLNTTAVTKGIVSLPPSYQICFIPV
# Description: (§1) The procedure of time-dependent CYP inhibition was similar to that used for CYP reversible inhibition, as mentioned above, except that a pre-incubation step was added. […] Another appropriate volume of the NADPH-regenerating system and probe substrate were added to initiate the CYP isoform enzyme activity test step. For this step, the incubation period was 10 min, except for CYP2B6, CYP2C8, and CYP3A4/5 (probe substrate: midazolam), which was 3 min to make sure the reaction was under initial linear rates. After incubation for the designated time periods at 37°C, the ice-cold acetonitrile containing IS was added to quench the reaction. […] (Ainactivator/[…] represents the enzyme activity remaining due to the inhibition by the diluted inactivator in the enzyme activity test step, and (Ainactivator/[…] represents the remaining enzyme activity due to pre-incubation loss plus inhibition by the diluted inactivator in the enzyme activity test step.
# [4] = molecular target: T3, CYP2C9 (Homo sapiens, UniProt P11712); experiment: Time-dependent CYP inhibition in HLM, CYP2C9; format: in vitro ADME; conditions: 10 μM, 30 min pre-incubation with NADPH
# T3 construct: tissue Life Technologies (Durham, NC, USA); host or cells: human liver microsomes
# T3 sequence (P11712 whole entry): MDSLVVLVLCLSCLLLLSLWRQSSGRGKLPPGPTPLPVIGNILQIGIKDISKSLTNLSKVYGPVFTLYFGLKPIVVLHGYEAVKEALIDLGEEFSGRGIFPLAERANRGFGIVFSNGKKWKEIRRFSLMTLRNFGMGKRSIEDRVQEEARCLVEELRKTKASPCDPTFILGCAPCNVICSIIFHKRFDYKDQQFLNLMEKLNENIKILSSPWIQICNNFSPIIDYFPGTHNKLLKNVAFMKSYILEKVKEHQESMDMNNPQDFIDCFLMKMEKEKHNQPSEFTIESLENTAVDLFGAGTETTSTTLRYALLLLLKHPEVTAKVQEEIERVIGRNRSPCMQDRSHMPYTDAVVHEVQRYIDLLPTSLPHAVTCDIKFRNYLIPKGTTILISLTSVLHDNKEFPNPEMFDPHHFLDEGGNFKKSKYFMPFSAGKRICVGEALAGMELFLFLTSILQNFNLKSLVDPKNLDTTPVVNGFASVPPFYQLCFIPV
# Description: as §1
# [5] = test system: CYP3A4 mRNA; experiment: CYP induction in human hepatocytes, CYP3A4 mRNA (RT-PCR); format: in vitro ADME
# Description: (§2) […] […] […] Enzyme activity for each CYP isoform was reported as a fold change over vehicle control and the percent of positive control (detailed calculation in Supplementary 1.1). Hepatocytes were harvested with a lysis buffer from RNeasy 96 Kit (Qiagen Inc., Germantown, MD, USA) to isolate RNA, which was analyzed by real-time quantitative polymerase chain reaction (RT-PCR). […] Emax (the maximal observed induction) and EC50 (the concentration that supports half-maximal induction) were estimated by non-linear regression of fold increase in CYP mRNA expression versus concentration plots.
# % of positive control = [(fold change in treated sample)-1] / [(fold change in positive control)-1] × 100
# [6] = Amdizalisib remaining/concentration after the last incubation in hepatocyte induction assays; conditions: for Amdizalisib concentration: CYP2C induction assay; for percentage of amdizalisib remaining: 5 h after last incubation
# Description: as §2
smiles,measurement,setting,value
C[C@H](Nc1ncnc(N)c1C#N)c1cc2ncc(Cl)n2nc1-c1ccccc1 [Amdizalisib],RB,"[1]; dog blood, 1 μM, 0 min",1.01
same,fuB,"[1]; dog, 0 min, 1 µM",10.9%
same,fup,"[1]; dog, 1 µM",0.109
same,RB,"[1]; dog, 10 min, 1 µM",0.874
same,fuB,"[1]; dog, 10 min, 1 µM",12.5%
same,RB,"[1]; dog, 60 min, 1 µM",0.968
same,fuB,"[1]; dog, 60 min, 1 µM",11.3%
same,enzyme activity remaining,[2]; 0.08 μM,97.1% and 111%
same,enzyme activity remaining,[2]; 0.4 μM,105%
same,enzyme activity remaining,"[2]; 0.4 μM, listed as amdizalisib",99.5%
same,enzyme activity remaining,[2]; 2 μM,102% and 98.0%
same,enzyme activity remaining,[2]; 10 μM,96.6% and 88.1%
same,enzyme activity remaining,[2]; 50 μM,68.6% and 65.9%
same,IC50,"[2]; HLM, reversible, without pre-incubation",> 50 µM
same,activity loss of CYP2C8,[3],less than 10%
same,activity loss of CYP2C9,[4],14.6%
same,"R3 value (CYP3A4 induction, basic kinetic model)",[5],≤ 0.8
same,induction on CYP3A4 mRNA expression,[5]; 20 uM,">2-fold induction on CYP1A2, 2B6, 3A4, 2C9 mRNA expression at 20 uM"
same,Gene expression Percent of PC (%),"[5]; CYP3A4, donor seven, 1 µM",8.40%
same,Gene expression Percent of PC (%),"[5]; CYP3A4, donor seven, 3 µM",2.70%
same,Gene expression Percent of PC (%),"[5]; CYP3A4, donor seven, 10 µM",46.6%
same,Gene expression Percent of PC (%),"[5]; CYP3A4, donor seven, 20 µM",23.3%
same,Gene expression Percent of PC (%),"[5]; CYP3A4, donor seven, 30 µM",53.6%
same,Gene expression Percent of PC (%),"[5]; CYP3A4, donor six, 1 µM",1.00%
same,Gene expression Percent of PC (%),"[5]; CYP3A4, donor six, 3 µM",1.60%
same,Gene expression Percent of PC (%),"[5]; CYP3A4, donor six, 10 µM",11.9%
same,Gene expression Percent of PC (%),"[5]; CYP3A4, donor six, 20 µM",21.4%
same,Gene expression Percent of PC (%),"[5]; CYP3A4, donor six, 30 µM",21.9%
same,Gene expression Percent of PC (%),"[5]; CYP3A4, donor two, 1 µM",1.30%
same,Gene expression Percent of PC (%),"[5]; CYP3A4, donor two, 3 µM",0.60%
same,Gene expression Percent of PC (%),"[5]; CYP3A4, donor two, 10 µM",15.9%
same,Gene expression Percent of PC (%),"[5]; CYP3A4, donor two, 20 µM",13.4%
same,Gene expression Percent of PC (%),"[5]; CYP3A4, donor two, 30 µM",28.1%
same,"Emax, CYP3A4 expression",[5]; donor seven,6.97 fold
same,"Emax, CYP3A4 expression",[5]; donor six,35.7 fold
same,"Emax, CYP3A4 expression",[5]; donor two,> 26.5 fold
same,Amdizalisib concentration,"[6]; nominal 3 µM, donor eight, 1h",3.57 ± 0.26 µM
same,Amdizalisib concentration,"[6]; nominal 3 µM, donor four, 1h",3.38 ± 0.33 µM
same,Amdizalisib concentration,"[6]; nominal 20 µM, donor eight, 1h",23.3 ± 0.27 µM
same,Amdizalisib concentration,"[6]; nominal 20 µM, donor eight, 4h",21.2 ± 2.3 µM
same,Amdizalisib concentration,"[6]; nominal 20 µM, donor eight, 24h",21.9 ± 0.27 µM
same,percentage of amdizalisib remaining,"[6]; donor seven, 30 µM",105.3%
same,percentage of amdizalisib remaining,"[6]; donor two, 10 µM",105.8%
same,percentage of amdizalisib remaining,"[6]; donor two, 30 µM",104.3%
